Measurements from EP2826473A1, “NOVEL USE OF PATCHOULOL” (Chengdu Huasun Group Inc., Ltd., priority 2012, dated 2013).
Converted amounts (≈) assume the structure as drawn. Where two headings read alike, the source gives them in different places.

Experiments:
[1] = system: learning and memory ability; settings: mice, scopolamine, intragastric 80 and 40 mg/kg; cited from earlier work
[2] = system: Staphylococcus auricularis; test: in vitro bacteriostatic activity, agar dilution MIC; format: cell-based
[3] = system: Staphylococcus epidermidis ATCC 12228; test: in vitro bacteriostatic activity, agar dilution MIC, quality control strain; format: cell-based; settings: ATCC12228; Staphylococcus epidermidis ATCC 12228; read-out: MIC
Klebsiella pneumonia = test: in vitro bacteriostatic activity, agar dilution MIC, quality control strain and summary; format: cell-based; settings: Klebsiella pneumoniae
[4] = system: Chryseobacterium indologenes; test: in vitro bacteriostatic activity, agar dilution MIC; format: cell-based
[5] = system: carrageenan-induced paw edema; settings: cited from earlier work
[6] = system: methicillin-resistant Staphylococcus aureus ATCC 43300; test: prevention of bacterial infection, colony count on patchoulol-coated tubes; settings: cultured 7 days at 37°C
[7] = system: Staphylococcus saprophyticus; test: in vitro bacteriostatic activity, agar dilution MIC; format: cell-based
[8] = system: influenza virus A/FM/1/47 (H1N1); settings: intragastric 40 and 80 mg/kg for successive 7 days; cited from earlier work
neurotoxicity of Aβ25∼35 = settings: in vitro, 0.05, 0.5, 5 µg/ml; cited from earlier work
Staphylococcus sciuri = test: in vitro bacteriostatic activity, agar dilution MIC; format: cell-based; settings: Mammaliicoccus sciuri; Staphylococcus sciuri 12-1
Enterococcus faecium = test: as above; format: cell-based; settings: Enterococcus faecium, read-out: MIC
Streptococcus agalactiae = test: as above; format: cell-based; settings: Streptococcus agalactiae 12-1
Klebsiella pneumonia E^- = test: as above; format: cell-based
[9] = system: Methicillin-resistant Staphylococcus aureus ATCC 43300; test: in vivo protection of model mice infected with methicillin-resistant Staphylococcus aureus; parameters: species or system KM mice; settings: intraperitoneal injection once a day, within 14 days; for Survival number: 10 animals
Protocol: Tested strains' virulence assay: Methicillin-resistant Staphylococcus aureus was cultured in incubator at 37°C to reach exponential phase of growth, and then diluted with normal saline to obtain different gradient concentrations of bacterial liquid. Different concentrations of bacterial liquid were taken and mixed with equivalent 10% gastric mucin. Bacterial liquid was administrated to mice at 0.5 ml/20 g by intraperitoneal injection, and 5% gastric mucin was used as control. Under a premise of no control mice death, the death rate of mice within 14 days was recorded, and the minimum bacterial volumes leading to death of whole mice were measured, i.e. the minimum lethal dose (MLD) of bacterial liquid.
Pretesting of effective dose in vivo: Infection model mice infected by Methicillin-resistant Staphylococcus aureus were randomly divided into a few of groups (four mice per group), and a graded dose of each bacterial liquid was separately administrated to mice in each test group at one time per day. Moreover, administration of test drug was done one day ahead of schedule, and toxic substances were not eliminated until 0.5 h after administration on the second day. The death status of mice within 14 days was observed, to determine the dosage used in the formal experiment.
KM mice (grade SPF), half male and half female, weighing 18-22 g were randomly divided into […] groups with ten mice for each group, i.e. the group receiving vancomycin hydrochloride for injection; the groups receiving high, medium, and low doses of patchoulol; blank group; model group; and control group receiving gastric mucin. All of the mice were administrated by intraperitoneal injection once a day. The mice were administrated one day in advance and then attacked after 0.5h of administration on the second day, i.e. intraperitoneally injected with methicillin-resistant Staphylococcus aureus liquid containing 5% gastric mucin. Amongst, mice in the model group were given normal saline instead of test drug; mice in the blank group were not given drugs and attacked; mice in the gastric mucin control group were not given test drug, but only injected with 5% gastric mucin without bacteria.
The death status of mice within 14 days after injection of bacteria was observed, and its survival rate was recorded.

Streptococcus pneumoniae = test: in vitro bacteriostatic activity, agar dilution MIC; format: cell-based
Corynebacterium = test: as above; format: cell-based; settings: Coryneba cterium 12-1

For `C[C@H]1CC[C@@]2(O)C(C)(C)[C@@H]3CC[C@@]2(C)[C@H]1C3` (stereo in doubt) [PC, (1R,4S,4aS,6R,8aS)-octahydro-4,8a,9,9-tetramethyl-1,6-methanonaphthalen-1(2H)-ol], the “learning and memory ability” value [1] is listed as “enhance learning and memory ability”, the MIC ([2]; Staphylococcus auricularis (first line, r19)) is listed as 25 mg/L (≈ 112 µM) and the MIC ([2]; Staphylococcus auricularis (second line, r20)) is listed as 50 mg/L (≈ 225 µM). For the same compound, the MIC [3] was 64 mg/L (≈ 288 µM), the MIC (Klebsiella pneumonia; ATCC700603, Klebsiella pneumonia ATCC 700603, read-out: MIC) was > 768 mg/L and the MIC (Klebsiella pneumonia; summary, Klebsiella pneumonia ESBLs^-/ESBLs^+, read-out: MIC values) was ≥ 768 mg/L. For the same compound, the MIC ([4]; Chryseobacterium indologenes12- (first line, r25)) was 25 mg/L (≈ 112 µM), the MIC ([4]; Chryseobacterium indologenes12- (second line, r26)) was 100 mg/L (≈ 450 µM) and the “content of NO, PGE-2, TNF-α in the hind paw” value ([5]; inflammatory rats, high dosage) was “significantly reduce”. The carrageenan-induced paw edema ([5]; rats, dose-dependent) was “effectively inhibit”, the bacterial colony numbers ([6]; 400, 200, 100 and 50 µg/ml, compared with 0 µg/ml) was “decrease” and the bacterial colony numbers ([6]; patchoulol on intraductal membranes more than or equal to 600 µg/ml) was 0. For the same compound, the MIC ([7]; Staphylococcus saprophyticus 12-2) was 100 mg/L (≈ 450 µM), the MIC ([7]; Staphylococcus saprophyticus12-3) was 100 mg/L (≈ 450 µM) and the MIC ([7]; Staphylococcus saprophyticus, Staphylococcus saprophyticus12-1, read-out: MIC) was 100 mg/L (≈ 450 µM). The “survival rate of nonlethal and lethal model mice” value [8] was “obviously improve the survival rate”, the “increase of intra-cellular ROS level and [Ca^2+]I induced by Aβ25~35” value (neurotoxicity of Aβ25∼35) was “inhibit the increase” and the MIC (Staphylococcus sciuri) was 50 mg/L (≈ 225 µM). The MIC (Enterococcus faecium; ATCC33186, Enterococcus faecium ATCC 33186) was 128 mg/L (≈ 576 µM), the MIC (Enterococcus faecium; Enterococcus faecium 12-7) was 64 mg/L (≈ 288 µM) and the MIC (Enterococcus faecium; Enterococcus faecium 12-8) was 64 mg/L (≈ 288 µM). It also gave an MIC (Enterococcus faecium; Enterococcus faecium 12-9) of 64 mg/L (≈ 288 µM), an MIC (Enterococcus faecium; Enterococcus faecium 12-10) of 32 mg/L (≈ 144 µM) and an MIC (Enterococcus faecium; Enterococcus faecium 12-11) of 32 mg/L (≈ 144 µM). It also gave an MIC (Enterococcus faecium; Enterococcus faecium 12-12) of 64 mg/L (≈ 288 µM), an MIC (Enterococcus faecium; Enterococcus faecium 12-13) of 64 mg/L (≈ 288 µM) and an MIC (Enterococcus faecium; Enterococcus faecium 12-14) of 64 mg/L (≈ 288 µM). It also gave an MIC (Enterococcus faecium; Enterococcus faecium 12-15) of 32 mg/L (≈ 144 µM), an MIC (Enterococcus faecium; Enterococcus faecium 12-16) of 32 mg/L (≈ 144 µM) and an MIC (Streptococcus agalactiae) of 50 mg/L (≈ 225 µM). The MIC (Klebsiella pneumonia E^-; Klebsiella pneumonia E^- 10-18) was >768 mg/L, the MIC (Klebsiella pneumonia E^-; Klebsiella pneumoniae, Klebsiella pneumonia E^- 10-16, read-out: MIC) was > 768 mg/L and the Survival number ([9]; High dose 200 mg/kg) was 10. The “Survial rate (%)” value ([9]; High dose 200 mg/kg) was 100%, the Survival number ([9]; Low dose 50 mg/kg) was 8 and the “Survial rate (%)” value ([9]; Low dose 50 mg/kg) was 80%. The Survival number ([9]; Medium dose 100 mg/kg) was 10, the “Survial rate (%)” value ([9]; Medium dose 100 mg/kg) was 100% and the MIC (Streptococcus pneumoniae; ATCC49619, Streptococcus pneumonia ATCC 49619) was 200 mg/L (≈ 899 µM). For the same compound, the MIC (Streptococcus pneumoniae; Streptococcus pneumonia 12-6) was 100 mg/L (≈ 450 µM), the MIC (Streptococcus pneumoniae; Streptococcus pneumonia 12-7) was 200 mg/L (≈ 899 µM) and the MIC (Streptococcus pneumoniae; Streptococcus pneumonia 12-8) was 100 mg/L (≈ 450 µM). The MIC (Streptococcus pneumoniae; Streptococcus pneumonia 12-9) was 100 mg/L (≈ 450 µM), the MIC (Streptococcus pneumoniae; Streptococcus pneumonia 12-10) was 200 mg/L (≈ 899 µM) and the MIC (Streptococcus pneumoniae; Streptococcus pneumoniae 12-1) was 200 mg/L (≈ 899 µM). For the same compound, the MIC (Streptococcus pneumoniae; Streptococcus pneumoniae 12-2) was 100 mg/L (≈ 450 µM), the MIC (Streptococcus pneumoniae; Streptococcus pneumoniae 12-3) was 200 mg/L (≈ 899 µM) and the MIC (Streptococcus pneumoniae; Streptococcus pneumoniae 12-4) was 200 mg/L (≈ 899 µM). The MIC (Streptococcus pneumoniae; Streptococcus pneumoniae 12-5) was 100 mg/L (≈ 450 µM) and the MIC (Corynebacterium) was 12.5 mg/L (≈ 56.2 µM).
